Data taken from US20230128889A1, “REL/RELA/SPOT SMALL MOLECULES MODULATORS AND SCREENING METHODS” (priority 2020, published 2023).

Key:
[1] = test system: Rel hydrolase (HD); test: Inhibition of Rel hydrolase activity: decrease of radioactive (p)ppGpp spot on TLC; type: biochemical; details: radioactive (p)ppGpp incubated with enzyme, with vs without compound
Protocol: (§1) As indicated above, the “Yes/No” in the 5th and 6th columns of TABLES A to F indicates whether there is, or respectively is not an inhibition of the synthetase (ST) and/or hydrolase (HD) activity. […] The action of a candidate compound is evaluated based on its effect on the production of (p)ppGpp. Therefore, in order to assess the potential influence of a candidate compound on synthesis activity, the enzyme was mixed with GDP or GTP and radioactive ATP to produce (p)ppGpp in absence or presence of the candidate compound. Subsequently, the reaction is developed by thin layer chromatography (TLC). In an alternative assay that enables determining the effect of a compound on the hydrolysis activity, radioactive (p)ppGpp is incubated with the enzyme and any decrease of the (p)ppGpp spot on TLC is evaluated when the assay is conducted in presence of the compound and compared to control conditions where no candidate compound is added during incubation.

[2] = test system: Rel synthetase (ST); test: Inhibition of Rel synthetase activity: (p)ppGpp production from GDP or GTP and radioactive ATP, TLC; type: biochemical; details: enzyme with GDP or GTP and radioactive ATP, absence or presence of compound
Protocol: as §1

Row | SMILES | HD (inhibition of the hydrolase activity) [1] | ST (inhibition of the synthetase activity) [2]
1 | O=C(COc1ccc2ccccc2c1)N1N=C2/C(=C/c3cccc([N+](=O)[O-])c3)CCCC2C1c1cccc([N+](=O)[O-])c1 (stereo not shown) [Compound 8] | Yes | No
2 | O=C(O)Cn1cc(/C=C2/C(=O)Nc3ccccc32)c2ccccc21 [Compound 40] | No | Yes
3 | O=C1OCc2ccc(-c3ccc(/C=N/Nc4nnn[nH]4)o3)cc21 [Compound 45] | Yes | Yes
4 | Cc1ccc(Nc2nc(N/N=C/c3cc(Cl)ccc3O)nc(Nc3ccc([N+](=O)[O-])cc3)n2)cc1C [Compound 66] | No | Yes
5 | O=C(O)CCNS(=O)(=O)c1ccc2[nH]c(=O)[nH]c2c1 [Compound 25] | Yes | No
6 | O=[N+]([O-])c1ccc(CSc2nnc(-c3ccccc3F)o2)cc1 [Compound 62] | Yes | No
7 | O=c1oc2cc(OCc3nnn[nH]3)ccc2cc1-c1ccc(Cl)cc1 [Compound 20] | Yes | Yes
8 | Cc1ccc(-n2cnnn2)cc1OCc1nnn[nH]1 [Compound 57] | Yes | No
9 | Cc1c(Cc2ccccc2)c(=O)oc2cc(OCc3nnn[nH]3)c(Cl)cc12 [Compound 19] | Yes | Yes
10 | Cc1cc(C(=O)N2CCN(c3ncccn3)CC2)c(N)c([N+](=O)[O-])c1 [Compound 63] | Yes | No
11 | O=C(O)c1cccc(Nc2ncnc3[nH]cnc23)c1 [Compound 55] | Yes | No
12 | O=C(O)c1cc(NS(=O)(=O)c2ccc3c4c(cccc24)C(=O)N3)cnc1Cl [Compound 49] | Yes | Yes
13 | COc1ccc2[nH]cc(CCNC(=O)c3nccnc3C(=O)O)c2c1 [Compound 29] | Yes | No
14 | O=C1c2cccc3cc([N+](=O)[O-])cc(c23)C(=O)N1O [Compound 50] | No | Yes
15 | Cc1cc(CCc2nnn[nH]2)c2c(C)c(Cc3ccccc3)c(=O)oc2c1 [Compound 17] | Yes | Yes
16 | Cc1ccc(CC(=O)Nc2ccc(N3CCC(N4CCCCC4)CC3)cc2C(=O)O)cc1 [Compound 74] | Yes | Yes
17 | O=c1oc2cc(OCc3nnn[nH]3)ccc2cc1-c1ccc(F)cc1 [Compound 14] | No | Yes
18 | COc1ccc(-c2cc3ccc(OCc4nnn[nH]4)cc3oc2=O)cc1 [Compound 12] | No | Yes
19 | Cc1c(C(=O)N(CCC(=O)O)CC2CCCO2)sc2ncn(C)c(=O)c12 (stereo not shown) [Compound 53] | Yes | No
20 | Cn1c(=O)[nH]c(=O)c2[nH]c(SCC(=O)O)nc21 [Compound 52] | Yes | No
21 | O=C(Nc1ccc(-n2cnc3ccccc32)nc1)c1ccc([N+](=O)[O-])o1 [Compound 43] | Yes | Yes
22 | Cc1c(Cc2ccccc2)c(=O)oc2cc(OCc3nnn[nH]3)ccc12 [Compound 18] | Yes | Yes
23 | O=C(O)CCS(=O)(=O)c1ccc2[nH]c(=O)oc2c1 [Compound 27] | Yes | No
24 | Cc1c(Cc2ccccc2)c(=O)oc2cc(OCc3ccc(C(=O)O)cc3)ccc12 [Compound 15] | No | Yes
25 | O=[N+]([O-])c1cccc(CN2CCN(S(=O)(=O)c3ccc4ccccc4c3)CC2)c1 [Compound 5] | Yes | No
26 | COc1ccc(C=C2C(=O)Nc3ccc(C(=O)O)cc32)cc1 [Compound 37] | No | Yes
27 | Cc1c(Cc2ccccc2)c(=O)oc2cc(OCC(=O)O)ccc12 [Compound 10] | No | Yes

Row | SMILES | HD (inhibition of the hydrolase activity) [1] | ST (inhibition of the synthetase activity) [2]
28 | O=C(Nc1ccc(Cl)c([N+](=O)[O-])c1)c1ccc(-c2cccc(Cl)c2Cl)o1 [Compound 68] | Yes | Yes
29 | Cc1ccccc1-n1c(SCC(=O)NC(=O)c2cccc([N+](=O)[O-])c2)nnc1-c1ccncc1 [Compound 65] | Yes | No
30 | O=C(c1cc(-c2cccc(Cl)c2)[nH]n1)N1CCc2ccc([N+](=O)[O-])cc21 [Compound 30] | Yes | No
31 | COc1ccc(CC(=O)Nc2ccc(N3CCC(N4CCCCC4)CC3)cc2C(=O)O)cc1 [Compound 73] | Yes | Yes
32 | O=C(O)CC(CNC(=O)CCn1nnc2ccccc2c1=O)c1ccc(Cl)cc1 (stereo not shown) [Compound 4] | Yes | No
33 | O=c1oc2cc(OCc3nnn[nH]3)ccc2cc1-c1ccccc1 [Compound 13] | No | Yes
34 | Cc1nc2cc(CC(=O)N[C@@H]3COCC[C@@H]3OCC(=O)O)ccc2[nH]1 [Compound 28] | Yes | No
35 | O=C(Nc1nnn[nH]1)c1ccc2c(Br)cccc2c1 [Compound 22] | Yes | Yes
36 | O=C1c2ccccc2C(=O)N1CCCc1nc(-c2cccc([N+](=O)[O-])c2)no1 [Compound 33] | Yes | No
37 | O=C(O)/C=C/c1cccc(NC2C(=O)Nc3ccccc32)c1 (stereo not shown) [Compound 31] | Yes | No
38 | CSCCC(NS(=O)(=O)c1ccc2c3c(cccc13)C(=O)N2)C(=O)O (stereo not shown) [Compound 47] | Yes | Yes
39 | Cc1ccc(CC(=O)Nc2ccc(N3CCN(CC(=O)NC(C)(C)C)CC3)cc2C(=O)O)cc1 [Compound 70] | Yes | Yes
40 | CCN(CC)C(=O)CN1CCN(c2ccc(NC(=O)Cc3ccc(C)cc3)c(C(=O)O)c2)CC1 [Compound 69] | Yes | Yes
41 | O=C(O)C1CCN(S(=O)(=O)c2ccc3[nH]c(=O)oc3c2)CC1 [Compound 42] | Yes | Yes
42 | O=[N+]([O-])c1ccc(Sc2nnc3c(n2)[nH]c2ccccc23)c([N+](=O)[O-])c1 [Compound 64] | Yes | No
43 | Cc1cc(OCC(=O)O)c2c(C)c(Cc3ccccc3)c(=O)oc2c1 [Compound 11] | No | Yes
44 | Cc1[nH]c2ccnn2c(=O)c1CC(=O)N(CCC(=O)O)CC1CCCO1 (stereo not shown) [Compound 54] | Yes | No
45 | CCCCCCc1c(C)c2ccc(OCc3nnn[nH]3)cc2oc1=O [Compound 16] | Yes | Yes
46 | O=C(CC(C(=O)O)C1CCCO1)NCCc1ccc2c(c1)OCO2 (stereo not shown) [Compound 36] | yes | no
47 | O=C(O)CCCC(=O)Nc1cc2[nH]c(=O)[nH]c2cc1N1CCCC1 [Compound 35] | yes | no
48 | O=C(O)CCNS(=O)(=O)c1cc2c3c(cccc3c1)C(=O)NC2=O [Compound 51] | Yes | Yes
49 | CC(Nc1ccc(F)cc1[N+](=O)[O-])c1ccc2[nH]c(=O)[nH]c2c1 (stereo not shown) [Compound 26] | Yes | No
50 | O=C1Nc2ccccc2/C1=N\c1cccc([N+](=O)[O-])c1 [Compound 39] | No | Yes
51 | O=C(O)C1Cc2ccccc2CN1C(=O)Cn1nnc2ccccc21 (stereo not shown) [Compound 6] | Yes | No
52 | O=C1CCc2cc(-c3csc(NC(=O)c4cccc([N+](=O)[O-])c4)n3)ccc2N1 [Compound 7] | Yes | No
53 | O=C(O)CNS(=O)(=O)c1ccc2c3c(cccc13)C(=O)N2 [Compound 48] | Yes | Yes
